Like-named read-outs stand apart in the source and are kept apart here. Positions of bridges follow the written chain, without caps; N, C: chain ends. Non-standard residues stand in square brackets, D forms with d. Residues, ends and D or L forms follow the SMILES beside them. Chains are numbered I, II in the order given. NMeF = CN[C@@H](Cc1ccccc1)C(=O)O
Tests used:
[1] = tested on: male rats; experiment: rat-tail flick test of D'Amour and Smith, intravenous administration; assay type: in vivo; conditions: for Positive Responses/Total Possible Response: all time points
Description: The holders are situated so that a high intensity light beam will shine on the tip of the rats tail. The light beam intensity is adjusted so that normal rats respond by removing their tails from the light stimulus within from 3 to 8 seconds. The average of three time readings for removal of a rats tail from the light beam, taken 20 minutes apart serves as a pre-drug control. The rats are selected for use based upon control readings that agree within one second. The compounds of this invention are then administered intravenously and the test performed at 15, 30 and 60 minutes to determine the animals reaction time which is compared with the control average and tested for significance. The number of rats showing analgesia at each time period out of the total group for each dose administered is noted as a ratio and the number of positive responses observed is relative to the total number of challenges for each group of rats.

[2] = tested on: rats; conditions: cited from earlier work; for analgesia: injection in the brain ventricle in rats, fully reversible by naloxone
[3] = tested on: mice; conditions: central administration (Baxter et al.); cited from earlier work
[4] = cited from earlier work; for activity when administered peripherally: peripheral administration
[5] = central administration (Pert et al.); cited from earlier work
[6] = tested on: mouse vas deferens; conditions: cited from earlier work
[7] = tested on: opiate receptor; conditions: brain homogenates; cited from earlier work
[8] = tested on: guinea pig ileum; conditions: cited from earlier work
[9] = tested on: rats; conditions: peripheral (i.v.), rats (Bajusz et al.); cited from earlier work

CN(C(=O)CNC(=O)[C@@H](CSSC[C@@H](NC(=O)[C@@H](N)Cc1ccc(O)cc1)C(=O)NCC(=O)N(C)[C@@H](Cc1ccccc1)C(N)=O)NC(=O)[C@@H](N)Cc1ccc(O)cc1)[C@@H](Cc1ccccc1)C(N)=O [Example 2, L-Tyrosyl-D-Cysteinyl-Glycyl-N-Methyl-L-Phenylalanyl Amide Disulfide Acetate] (I: H-Y[dC]G[NMeF]-NH2 / II: H-Y[dC]G[NMeF]-NH2; disulfide I:2-II:2)
Respiration normal (number of rats) ([1]; 1.0 mg/kg i.v.): 5/5
dead (number of rats) ([1]; 1.0 mg/kg i.v.): 1/6
No. Analgesic/No. Tested ([1]; 1.0 mg/kg i.v., 15 minutes): 3/6
No. Analgesic/No. Tested ([1]; 1.0 mg/kg i.v., 30 minutes): 2/6
No. Analgesic/No. Tested ([1]; 1.0 mg/kg i.v., 60 minutes): 1/5
Positive Responses/Total Possible Response ([1]; 1.0 mg/kg i.v.): 6/17
Respiration very depressed (number of rats) ([1]; 5.0 mg/kg i.v.): 6/6
dead (number of rats) ([1]; 5.0 mg/kg i.v.): 0/6
No. Analgesic/No. Tested ([1]; 5.0 mg/kg i.v., 15 minutes): 6/6
No. Analgesic/No. Tested ([1]; 5.0 mg/kg i.v., 30 minutes): 5/6
No. Analgesic/No. Tested ([1]; 5.0 mg/kg i.v., 60 minutes): 5/6
Positive Responses/Total Possible Response ([1]; 5.0 mg/kg i.v.): 16/18

H-Tyr-D-Ala-Gly-Phe-D-Leu-OH
antinociceptive and behavioral effects ([2]; rats, central administration (Baxter et al.)): exhibit antinociceptive and behavioral effects
antinociceptive and behavioral effects [3]: exhibit antinociceptive and behavioral effects
peripheral analgesic activity ([4]; peripheral administration (Wei et al.; Romer et al.)): exhibit peripheral analgesic activity

H-Tyr-D-Ala-Gly-Phe-D-Met-NH2
analgesic activity ([2]; rats, centrally administered (Fredrickson)): produced analgesic activity

H-Tyr-D-Ala-Gly-Phe-Met-NH2
analgesia [5]: long lasting analgesic

H-Tyr-Gly-Gly-Phe-Leu-OH [leucine-enkephalin]
analgesia [2]: induce a profound analgesia
block of electrically evoked contractions [6]: mimic the ability of morphine to block electrically evoked contractions
inhibition of stereospecific receptor binding of 3H-naloxone [7]: inhibit the stereospecific receptor binding
block of electrically evoked contractions [8]: mimic the ability of morphine to block electrically evoked contractions
activity when administered peripherally [4]: inactive

H-Tyr-Gly-Gly-Phe-Met-OH [methionine-enkephalin]
analgesia [2]: induce a profound analgesia
block of electrically evoked contractions [6]: mimic the ability of morphine to block electrically evoked contractions
inhibition of stereospecific receptor binding of 3H-naloxone [7]: inhibit the stereospecific receptor binding
block of electrically evoked contractions [8]: mimic the ability of morphine to block electrically evoked contractions
activity when administered peripherally [4]: inactive

H-Y[dM]GFP-NH2
analgesic activity [9]: peripheral (i.v.) analgesic activity
